Assay results reported in patent publication US4423063A, “2,4-Dioxo-4-substituted-1-butaoic acid derivatives useful in treating urinary track calcium oxalate lithiasis” (Merck & Co., Inc., priority 1982, dated 1983).

Target: T1, pig liver glycolate oxidase (Sus scrofa, UniProt I3LVF1)
T1 construct: The enzyme was pig liver glycolate oxidase; from tissue; host or cells: pig liver
T1 sequence (I3LVF1 1-370): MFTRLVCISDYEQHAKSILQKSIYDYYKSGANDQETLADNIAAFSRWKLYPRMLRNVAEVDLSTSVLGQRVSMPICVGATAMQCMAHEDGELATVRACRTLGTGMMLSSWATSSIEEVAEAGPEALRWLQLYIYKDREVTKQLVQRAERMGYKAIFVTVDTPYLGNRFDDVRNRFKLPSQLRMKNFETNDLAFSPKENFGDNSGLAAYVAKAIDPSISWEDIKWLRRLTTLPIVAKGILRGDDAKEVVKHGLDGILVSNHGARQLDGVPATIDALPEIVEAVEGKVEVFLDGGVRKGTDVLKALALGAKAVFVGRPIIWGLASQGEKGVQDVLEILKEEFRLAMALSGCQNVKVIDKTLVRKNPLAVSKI
Assay: Glycolate oxidase enzyme inhibition
Assay type: biochemical
Settings: 25° C., 0.10 M phosphate buffer pH 7.0, 3 mM EDTA, 2×10^-4 M sodium glycolate
Procedure: The usefulness of the compounds of the present invention in treating urinary tract, especially renal, calcium oxalate lithiasis, is shown by the ability of those compounds to inhibit the glycolate oxidase enzyme. […] The activity of the enzyme, in turn, was measured by following the rate of reduction of sodium 2,6-dichlorophenol-indophenol by sodium glycolate in the presence of the enzyme. The enzyme was pig liver glycolate oxidase. The reaction was followed spectrophotometrically at 600 nm. The assay was conducted at 25° C. in a 0.10 M phosphate buffer, pH 7.0, containing 3 mM EDTA. Initial substrate concentrations were 5×10^-5 M of sodium 2,6-dichlorophenol-indophenol and 2×10^-4 M of sodium glycolate. Reactions were initiated by the addition of enzyme. Initial rates during the period from 1 to 3 min. after the addition of enzyme were recorded on a Beckman Acta M-VI spectrophotometer. One control was run simultaneously with three test reactions and all initial rates were adjusted to a common control rate. For further details of this procedure, see Randall et al., J. Med. Chem., 22, 6, 612 (1979).

| Compound | IC50 [nM] | IC50 (unit inferred) [nM] |
| --- | --- | --- |
| O=C(O)C(=O)CC(=O)c1ccc(-c2ccc(S)cc2)cc1 [4-[(4'-Mercapto-1,1'-biphenyl)-4-yl]-2,4-dioxo-1-butanoic acid] | 2100 |  |
| O=C(O)C(=O)CC(=O)c1ccc(-c2ccc(SCC3(O)COc4ccccc4OC3)cc2)cc1 [4-[[4'-[(3,4-dihydro-3-hydroxy-2H-1,5-benzodioxepin-3-yl)methylthio]-1,1'-biphenyl]-4-yl]-2,4-dioxo-1-butanoic acid] | 62 |  |
| CSc1ccc(-c2ccc(C(=O)CC(=O)C(=O)O)cc2)cc1 [4-[(4'-Methylthio-1,1'-biphenyl)-4-yl]-2,4-dioxo-1-butanoic acid] |  | 150 |

Further lines, results first:

| IC50 [nM] | IC50 (unit inferred) [nM] | Compound |
| --- | --- | --- |
| 90 |  | O=C(O)C(=O)CC(=O)c1ccc(-c2ccc(SCCc3ccncc3)cc2)cc1 [4-[[4'-[2-(4-Pyridinylethyl)thio]-1,1'-biphenyl]-4-yl]-2,4-dioxo-1-butanoic acid] |
| 420 |  | O=C(O)C(=O)CC(=O)c1ccc(-c2ccc(SCc3ccccc3)cc2)cc1 [4-[[4'-[(Phenylmethyl)thio]-1,1'-biphenyl]-4-yl]-2,4-dioxo-1-butanoic acid] |
